Test results reported in US7138361B2, “Herbicidal heterocycles” (E. I. du Pont de Nemours and Company, priority 2000, dated 2006).

Key:
Type in all cases: in vivo
rice (Oryza saliva) = assay: Test C flooded paddy test; settings: for Rice plant response rating: Flooded Paddy, scale 0 to 100, 0 no effect, 100 complete control; for Plant response rating, Rice: flooded paddy test, scale 0 to 100 (0 no effect, 100 complete control)
How it was run: (§1)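 Visual ratings (0 = no effect, 100 = complete control) were made 12–14 days after treatment, relative to greenhouse controls. Plants in the flooded paddy test were rice, smallflower flatsedge, duck salad and barnyardgrass, treated at the 2-leaf stage.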

[1] = test system: duck salad (Heteranthera limosa); assay: Test C flooded paddy test; settings: for Ducksalad plant response rating: Flooded Paddy, scale 0 to 100, 0 no effect, 100 complete control; for Plant response rating, Ducksalad: flooded paddy test, scale 0 to 100 (0 no effect, 100 complete control)
How it was run: as §1

[2] = test system: smallflower flatsedge (Cyperus difformis); assay: Test C flooded paddy test; settings: for Flatsedge plant response rating: Flooded Paddy, scale 0 to 100, 0 no effect, 100 complete control; for Plant response rating, Flatsedge: flooded paddy test, scale 0 to 100 (0 no effect, 100 complete control)
How it was run: as §1

[3] = test system: barnyardgrass (Echinochloa crus-galli); assay: Test C flooded paddy test; settings: for Barnyardgrass plant response rating: Flooded Paddy, scale 0 to 100, 0 no effect, 100 complete control; for Plant response rating, Barnyardgrass: flooded paddy test, scale 0 to 100 (0 no effect, 100 complete control)
How it was run: as §1

[4] = test system: lambsquarters (Chenopodium album); assay: Test C preemergence
How it was run: (§2)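 Pre- and postemergence treatments used a non-phytotoxic solvent/surfactant formulation; post-treated plants measured 2 to 18 cm. Greenhouse hold 12–14 d; % control estimated visually relative to controls.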

soybean (Glycine max) = assay: Test C preemergence
How it was run: as §2

Nightshade [5] = assay: Test C preemergence
corn (Zea mays) [6] = assay: Test C preemergence
How it was run: as §2

[7] = test system: pigweed (Amaranthus retroflexus); assay: Test C preemergence
How it was run: as §2

[8] = test system: yellow nutsedge (Cyperus esculentus); assay: Test C preemergence
How it was run: as §2

kochia (Kochia scoparia) = assay: Test C preemergence
How it was run: as §2

[9] = test system: johnsongrass (Sorghum halepense); assay: Test C preemergence
How it was run: as §2

[10] = test system: woolly cupgrass (Eriochloa villosa); assay: Test C preemergence
How it was run: as §2

Sunflower = assay: Test C preemergence; settings: Rate 125 g/ha, scale 0 to 100, 0 no effect, 100 complete control
Nightshade [11] = assay: Test C preemergence; settings: Rate 250 g/ha, visual evaluation after 12 to 14 days
[12] = test system: wheat (Triticum aestivum); assay: Test B postemergence; settings: 13 to 15 days
How it was run: (§3)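 Visual injury scores, 0 = no effect to 100 = complete control, assigned against controls after 13 to 15 days in the greenhouse. Compounds formulated in non-phytotoxic solvent plus surfactant and applied to soil after planting (pre) or onto foliage of 1- to 4-leaf plants (post).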

corn (Zea mays) [13] = assay: Test B postemergence; settings: 13 to 15 days
How it was run: as §3

[14] = test system: barnyardgrass (Echinochloa crus-galli); assay: Test B postemergence; settings: 13 to 15 days
How it was run: as §3

wild oat (Avena fatua) = assay: Test B postemergence; settings: 13 to 15 days
How it was run: as §3

[15] = Rate 62 g/ha, scale 0 to 100, 0 no effect, 100 complete control
[16] = preemergence, Rate 31 g/ha, scale 0 to 100
[17] = preemergence, Rate 250 g/ha, visual evaluation after 12 to 14 days
[18] = preemergence, Rate 125 g/ha, scale 0 to 100, 0 no effect, 100 complete control
[19] = Rate 125 g/ha, scale 0 (no effect) to 100 (complete control)
[20] = Rate 500 g/ha, scale 0 to 100, 0 is no effect, 100 is complete control

CC(C)(C)c1ccn(C2CCN(c3ccc(Cl)c(Cl)c3)C2=O)n1 (stereo not shown) [Compound 34]
Rice plant response rating (rice (Oryza saliva); Rate 250 g/ha): 0 | Rice plant response rating (rice (Oryza saliva); Rate 500 g/ha): 20 | Plant response rating, Rice (rice (Oryza saliva); Rate 62 g/ha): 0 | Plant response rating, Rice (rice (Oryza saliva); Rate 125 g/ha): 0 | Ducksalad plant response rating ([1]; Rate 250 g/ha): 70 | Ducksalad plant response rating ([1]; Rate 500 g/ha): 100 | Plant response rating, Ducksalad ([1]; Rate 62 g/ha): 20 | Plant response rating, Ducksalad ([1]; Rate 125 g/ha): 50 | Flatsedge plant response rating ([2]; Rate 250 g/ha): 90 | Flatsedge plant response rating ([2]; Rate 500 g/ha): 100 | Plant response rating, Flatsedge ([2]; Rate 62 g/ha): 70 | Plant response rating, Flatsedge ([2]; Rate 125 g/ha): 90 | Barnyardgrass plant response rating ([3]; Rate 250 g/ha): 80 | Barnyardgrass plant response rating ([3]; Rate 500 g/ha): 80 | Plant response rating, Barnyardgrass ([3]; Rate 62 g/ha): 0 | Plant response rating, Barnyardgrass ([3]; Rate 125 g/ha): 40 | Plant response rating, Lambsquarters [4, 15]: 90 | Plant response rating, Lambsquarters [4, 16]: 90 | Plant response rating (0 to 100), Lambsquarters [4, 17]: 100 | Plant response rating, Lambsquarters [4, 18]: 100 | Plant response rating, Soybean (soybean (Glycine max); [15]): 0 | Plant response rating, Soybean (soybean (Glycine max); [16]): 0 | Plant response rating (0 to 100), Soybean (soybean (Glycine max); [17]): 0 | Plant response rating, Soybean (soybean (Glycine max); [18]): 0 | Plant response rating, Nightshade (Nightshade [5]; Rate 31 g/ha, scale 0 to 100): 0 | Plant response rating, Nightshade (Nightshade [5]; [15]): 0 | Plant response rating, Nightshade (Nightshade [5]; Rate 125 g/ha, scale 0 to 100, 0 no effect, 100 complete control): 0 | Plant response rating, Corn (corn (Zea mays) [6]; [15]): 0 | Plant response rating, Corn (corn (Zea mays) [6]; [16]): 0 | Plant response rating (0 to 100), Corn (corn (Zea mays) [6]; [17]): 0 | Plant response rating, Corn (corn (Zea mays) [6]; [18]): 0 | Plant response rating, Pigweed [7, 15]: 100 | Plant response rating, Pigweed [7, 16]: 0 | Plant response rating (0 to 100), Pigweed [7, 17]: 40 | Plant response rating, Pigweed [7, 18]: 100 | Plant response rating, Nutsedge [8, 15]: 0 | Plant response rating, Nutsedge [8, 16]: 0 | Plant response rating (0 to 100), Nutsedge [8, 17]: 0 | Plant response rating, Nutsedge [8, 18]: 0 | Plant response rating, Kochia (kochia (Kochia scoparia); [15]): 100 | Plant response rating, Kochia (kochia (Kochia scoparia); [16]): 100 | Plant response rating (0 to 100), Kochia (kochia (Kochia scoparia); [17]): 100 | Plant response rating, Kochia (kochia (Kochia scoparia); [18]): 100 | Plant response rating, Johnsongrass [9, 15]: 0 | Plant response rating, Johnsongrass [9, 16]: 0 | Plant response rating (0 to 100), Johnsongrass [9, 17]: 0 | Plant response rating, Johnsongrass [9, 18]: 0 | Plant response rating, Cupgrass, Woolly [10, 15]: 20 | Plant response rating, Cupgrass, Woolly [10, 16]: 0 | Plant response rating (0 to 100), Cupgrass, Woolly [10, 17]: 80 | Plant response rating, Cupgrass, Woolly [10, 18]: 20 | Plant response rating, Sunflower (Sunflower): 0 | Plant response rating (0 to 100), Nightshade (Nightshade [11]): 0 | Plant response rating, Wheat [12, 19]: 0 | Plant response rating, Wheat [12, 20]: 0 | Plant response rating, Corn (corn (Zea mays) [13]; [19]): 0 | Plant response rating, Corn (corn (Zea mays) [13]; [20]): 0 | Plant response rating, Barnyardgrass [14, 19]: 0 | Plant response rating, Barnyardgrass [14, 20]: 0 | Plant response rating, Wild Oat (wild oat (Avena fatua); [19]): 0 | Plant response rating, Wild Oat (wild oat (Avena fatua); [20]): 0
